Experimental data as given in patent US20260130894A1, “COMPOSITION COMPRISING ISOQUINOLINE DERIVATIVE AS ACTIVE INGREDIENT FOR PREVENTION OR TREATMENT OF PARKINSON'S DISEASE” (ALTMEDICAL CO., LTD., priority 2022, published 2026).

Experiments:
BEAS-2B cell line = test: Mitophagy activity in BEAS-2B cells expressing mt-Keima (FACS, confocal microscope, mito-YFP); type: cell-based, human; conditions: BEAS-2B mt-Keima (FIG. 5)
Method: To analyze the mitophagy-promoting activity effect of the CD1-012 synthesized in the Example 1, the BEAS-2B cell line, which is a human normal lung cell line, was induced to express the mt-Keima fluorescent protein. Following this, the CD1-012 (15 μM) and the compound of Comparative Example 1, CCCP (10 μM), were treated for 24 hours. After the treatment, the mitophagy activity of each sample was measured, and the results were represented in FIGS. 1A to 1C.
Specifically, FIG. 1A represents the analysis results using flow cytometry (FACS) (treatment of CD1-012 at 15 μM for 24 hours), FIG. 1B represents the analysis results using a confocal microscope (treatment of CD1-012 at 15 μM for 18 hours), and FIG. 1C represents the measurement results of the quantitative changes in the mitochondria using a fluorescent protein, mito-YFP, which includes a targeting sequence to transport protein to the mitochondria (treatment of CD1-012 at 20 μM for 24 hours).
It was confirmed whether CD1-012 synthesized in Example 1 promotes mitophagy activity in a concentration- and time-dependent manner. To this end, the CD1-012 was treated at various concentrations or at a fixed concentration (15 μM) for different treatment durations in the BEAS-2B cell line expressing mt-Keima, and mitophagy activity was measured using a flow cytometer.
It was confirmed whether CD1-012 synthesized in Example 1 specifically increases only mitophagy activity. To this end, the BEAS-2B cell line expressing mt-Keima was treated with CD1-012 (15 μM) or Comparative Example 1 (CCCP, 10 μM) for 18 hours, and mitophagy activity was analyzed using a confocal microscope. Additionally, to measure autophagy activity, the BEAS-2B cell line expressing Keima fluorescent protein was incubated in Hanks' balanced salt solution (HBSS) for 3 hours to induce a starvation condition (starv.), and the results were compared with samples treated with CD1-012 (15 μM) for 18 hours using a confocal microscope.
To this end, the human normal lung cell line BEAS-2B, expressing mt-Keima fluorescent protein, was treated with CD1-012, Comparative Example 2 (palmatine), or Comparative Example 3 (berberine) at various concentrations, and the mitophagy-inducing activity of each sample was compared.

[1] = test system: mitochondrial membrane potential; test: Mitochondrial membrane potential, TMRM assay; type: cell-based; conditions: CD1-012 10 μM or 15 μM, CCCP 10 μM, 24 hours (FIG. 6)
Method: (§1) It was confirmed whether the isoquinoline derivative according to the present invention induces mitochondrial dysfunction, similar to CCCP. To this end, the CD1-012 (10 μM or 15 μM) and CCCP (10 μM) were treated for 24 hours, and the mitochondrial membrane potential and mitochondrial reactive oxygen species (ROS) levels in each sample were analyzed. Mitochondrial membrane potential was analyzed using the TMRM (tetramethylrhodamine methyl ester) assay, and mitochondrial ROS levels were analyzed using the MitoSOX assay.

[2] = test system: mitochondrial reactive oxygen species (ROS); test: Mitochondrial reactive oxygen species, MitoSOX assay; type: cell-based; conditions: CD1-012 10 μM or 15 μM, CCCP 10 μM, 24 hours (FIG. 6)
Method: as §1

[3] = test system: BEAS-2B cell line, in which PINK1 was knocked down; test: Mitophagy activity in PINK1 knockdown (shPINK1) BEAS-2B cells (FACS); type: cell-based, human; conditions: CCCP 10 μM, CD1-012 15 μM, 18 hours (FIG. 7)
Text: In this example, it was confirmed whether the mitophagy activation function of the isoquinoline derivative according to the present invention is dependent on the PINK1-Parkin pathway. […]
In the following example, it was confirmed whether the novel isoquinoline derivative according to the present invention has a therapeutic effect of preventing or improving Parkinson's disease. Most of all, it was confirmed whether the treatment with the isoquinoline derivative improves mitochondrial dysfunction of a Parkinson's disease cell model. To this end, first, the induction of mitophagy by CD1-012 was verified. […] In addition, to analyze whether the mitophagy-promoting activity of CD1-012 is dependent on PINK1, PINK1 expression was inhibited (using shPNIK1) in BEAS-2B cells, which is a human normal lung cell line expressing a mitochondrial fluorescent protein, and mitophagy activity was analyzed by flow cytometry (FACS).

SMILES	concentration at which mitophagy activity reached its maximum (BEAS-2B cell line) [µM]	mitochondrial membrane potential [1]	mitochondrial ROS levels [2]	mitophagy activation in PINK1 knockdown cell line (shPINK1) compared to control cell line (shNT) [3]
COc1cc2c(cc1OC)-c1cc3ccc(OC)c(OC)c3c[n+]1CC2 [palmatine, Palmatine, reference compound]	400			
N#CC(C#N)=NNc1cccc(Cl)c1 [CCCP, Carbonyl cyanide 3-chlorophenylhydrazone, reference compound]		significantly reduced	significantly increased	significantly decreased
COc1ccc2cc3[n+](cc2c1OC)CCc1cc2c(cc1-3)OCO2 [berberine, Berberine, reference compound]	80			
